Measured values published in US20230089867A1, “CYCLIC PENTAMER COMPOUNDS AS PROPROTEIN CONVERTASE SUBTILISIN/KEXIN TYPE 9 (PCSK9) INHIBITORS FOR THE TREATMENT OF METABOLIC DISORDER” (Novartis AG, priority 2018, published 2023).

Target: human PCSK9 (Homo sapiens, UniProt Q8NBP7)
Experiment: PCSK9 ligand binding TR-FRET assay (interference with binding of human PCSK9 to human LDLR)
Conditions: for Max % inhibition: PCSK9 FRET assay, efficacy (Amax), 100% = 1 uM unlabeled human PCSK9, 0% = DMSO; for IC50: TR-FRET, human PCSK9 Alexa Fluor 647 / human LDLR extracellular domain-Europium Kryptate, read-out: PCSK9 FRET Assay IC50
Method in brief: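 Threefold compound dilutions were pre-incubated 30 min with PCSK9, after which 4 nM Europium Kryptate-tagged human LDLR ectodomain was added for a further 2 h.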

Sequence of human PCSK9 (Q8NBP7 153-692): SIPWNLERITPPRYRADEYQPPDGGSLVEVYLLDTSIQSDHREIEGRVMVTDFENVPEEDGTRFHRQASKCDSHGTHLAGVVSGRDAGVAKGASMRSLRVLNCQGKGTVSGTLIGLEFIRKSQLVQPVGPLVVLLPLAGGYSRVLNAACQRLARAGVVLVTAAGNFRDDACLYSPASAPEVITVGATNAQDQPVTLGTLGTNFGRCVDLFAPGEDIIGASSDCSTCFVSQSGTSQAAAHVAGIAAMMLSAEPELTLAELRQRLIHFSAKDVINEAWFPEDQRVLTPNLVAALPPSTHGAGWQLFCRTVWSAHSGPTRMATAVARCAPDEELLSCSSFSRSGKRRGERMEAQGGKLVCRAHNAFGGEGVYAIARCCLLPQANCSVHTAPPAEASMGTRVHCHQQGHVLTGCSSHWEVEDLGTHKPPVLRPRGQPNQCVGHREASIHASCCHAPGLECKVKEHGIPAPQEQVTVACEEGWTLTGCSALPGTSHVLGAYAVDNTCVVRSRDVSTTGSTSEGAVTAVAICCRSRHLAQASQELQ
Sequence of human PCSK9 (Q8NBP7 31-152 partner limits assumed): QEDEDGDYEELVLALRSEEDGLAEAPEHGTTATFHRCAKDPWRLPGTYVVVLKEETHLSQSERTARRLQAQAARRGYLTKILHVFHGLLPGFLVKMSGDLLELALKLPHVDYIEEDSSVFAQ

Compound | Max % inhibition [%] | IC50 [nM]
COC[C@@H]1NC(=O)[C@@H](C)N(Cc2ccc(C(F)F)cc2Oc2ccc(-c3cnc(CN(C)C)n3C)cc2)C(=O)C[C@@H](Cc2ccccc2)C(=O)N(C)[C@@H](C)CNC(=O)C[C@H](Cc2ccc(Cl)cc2)N(C)C1=O [Compound 74, (2R,5S,8S,13S,16R)-16-benzyl-8-(4-chlorobenzyl)-1-(4-(difluoromethyl)-2-(4-(2-((dimethylamino)methyl)-1-methyl-1H-imidazol-5-yl)phenoxy)benzyl)-5-(methoxymethyl)-2,7,13,14-tetramethyl-1,4,7,11,14-pentaazacyclooctadecane-3,6,10,15,18-pentaone] | 104.33 | 46.5
CCC[C@@H](O)[C@@H]1CC(=O)N(Cc2ccc(Cl)cc2Oc2ccc(-c3cnc(CN(C)C)n3C)cc2)[C@@H](C)C(=O)N[C@@H](COC)C(=O)N(C)[C@@H](Cc2ccc(Cl)cc2)CC(=O)NC[C@H](C)N(C)C1=O [Compound 75, (2S,5S,8S,13S,16S)-1-(4-chloro-2-(4-(2-((dimethylamino)methyl)-1-methyl-1H-imidazol-5-yl)phenoxy)benzyl)-8-(4-chlorobenzyl)-16-((R)-1-hydroxybutyl)-5-(methoxymethyl)-2,7,13,14-tetramethyl-1,4,7,11,14-pentaazacyclooctadecane-3,6,10,15,18-pentaone] | 103.69 | 4
COC[C@@H]1NC(=O)[C@H](C)N(Cc2ccc(Cl)cc2Oc2ccc(-c3cnc(CN4CCC4)n3C)cc2)C(=O)C[C@@H](Cc2ccccc2)C(=O)N(C)[C@@H](C)CNC(=O)C[C@H](Cc2ccc(Cl)cc2)N(C)C1=O [Compound 76, (2S,5S,8S,13S,16R)-1-(2-(4-(2-(azetidin-1-ylmethyl)-1-methyl-1H-imidazol-5-yl)phenoxy)-4-chlorobenzyl)-16-benzyl-8-(4-chlorobenzyl)-5-(methoxymethyl)-2,7,13,14-tetramethyl-1,4,7,11,14-pentaazacyclooctadecane-3,6,10,15,18-pentaone] | 96.97 | 1
COC[C@@H]1NC(=O)[C@H](C)N(Cc2ccc(Cl)cc2Oc2ccc(-c3cnc(CN(C)C)n3C)cc2)C(=O)C[C@@H](Cc2ccccc2)C(=O)N(C)[C@@H]2C[C@@H]2NC(=O)C[C@H](Cc2ccc(Cl)cc2)N(C)C1=O [Compound 77, (1S,5S,8S,11S,15R,18R)-15-benzyl-12-(4-chloro-2-(4-(2-((dimethylamino)methyl)-1-methyl-1H-imidazol-5-yl)phenoxy)benzyl)-5-(4-chlorobenzyl)-8-(methoxymethyl)-6,11,17-trimethyl-2,6,9,12,17-pentaazabicyclo[16.1.0]nonadecane-3,7,10,13,16-pentaone] | 104.08 | 9
COC[C@@H]1NC(=O)[C@H](COC)N(Cc2ccc(Cl)cc2Oc2ccc(-c3cnc(CN(C)C)n3C)cc2)C(=O)C[C@@H](Cc2ccccc2)C(=O)N(C)[C@@H](C)CNC(=O)C[C@H](Cc2ccc(Cl)cc2)N(C)C1=O [Compound 78, (2S,5S,8S,13S,16R)-16-benzyl-1-(4-chloro-2-(4-(2-((dimethylamino)methyl)-1-methyl-1H-imidazol-5-yl)phenoxy)benzyl)-8-(4-chlorobenzyl)-2,5-bis(methoxymethyl)-7,13,14-trimethyl-1,4,7,11,14-pentaazacyclooctadecane-3,6,10,15,18-pentaone] | 97.49 | 94.6
C[C@H]1C(=O)N[C@@H](COC(F)F)C(=O)N(C)[C@@H](Cc2ccc(Cl)cc2)CC(=O)N[C@H]2CCCC[C@@H]2N(C)C(=O)[C@H](Cc2ccccc2)CC(=O)N1Cc1ccc(Cl)cc1Oc1ccc(-c2cnc(CN(C)C)n2C)cc1 [Compound 79, (4S,7S,10S,14R,16aS,20aS)-14-benzyl-11-(4-chloro-2-(4-(2-((dimethylamino)methyl)-1-methyl-1H-imidazol-5-yl)phenoxy)benzyl)-4-(4-chlorobenzyl)-7-((difluoromethoxy)methyl)-5,10,16-trimethylhexadecahydrobenzo[l][1,4,7,11,14]pentaazacyclooctadecine-2,6,9,12,15(3H)-pentaone] | 103.04 | 1.8
COC[C@@H]1NC(=O)[C@H](C)N(Cc2ccc(C(F)(F)F)cc2Oc2ccc(-c3cnc(CN4CCCC4)n3C)cc2)C(=O)C[C@@H](Cc2ccccc2)C(=O)N(C)[C@@H](C)CNC(=O)C[C@H](Cc2ccc(Cl)cc2)N(C)C1=O [Compound 80, (2S,5S,8S,13S,16R)-16-benzyl-8-(4-chlorobenzyl)-5-(methoxymethyl)-2,7,13,14-tetramethyl-1-(2-(4-(1-methyl-2-(pyrrolidin-1-ylmethyl)-1H-imidazol-5-yl)phenoxy)-4-(trifluoromethyl)benzyl)-1,4,7,11,14-pentaazacyclooctadecane-3,6,10,15,18-pentaone] | 103.62 | 6.3
CCC/C=C/c1ncc(-c2ccc(Oc3cc(Cl)ccc3CN3C(=O)C[C@@H](Cc4ccccc4)C(=O)N(C)[C@@H](C)CNC(=O)C[C@H](Cc4ccc(Cl)cc4)N(C)C(=O)[C@H](COC)NC(=O)[C@@H]3C)cc2)n1C [Compound 81, (2S,5S,8S,13S,16R)-16-benzyl-1-(4-chloro-2-(4-(1-methyl-2-((E)-pent-1-en-1-yl)-1H-imidazol-5-yl)phenoxy)benzyl)-8-(4-chlorobenzyl)-5-(methoxymethyl)-2,7,13,14-tetramethyl-1,4,7,11,14-pentaazacyclooctadecane-3,6,10,15,18-pentaone] | 87.86 | 34.5
COC[C@@H]1NC(=O)[C@H](CC(=O)O)N(Cc2ccc(Cl)cc2Oc2ccc(-c3cnc(CN(C)C)n3C)cc2)C(=O)C[C@@H](Cc2ccccc2)C(=O)N(C)[C@@H](C)CNC(=O)C[C@H](Cc2ccc(Cl)cc2)N(C)C1=O [Compound 82, 2-((2S,5S,8S,13S,16R)-16-benzyl-1-(4-chloro-2-(4-(2-((dimethylamino)methyl)-1-methyl-1H-imidazol-5-yl)phenoxy)benzyl)-8-(4-chlorobenzyl)-5-(methoxymethyl)-7,13,14-trimethyl-3,6,10,15,18-pentaoxo-1,4,7,11,14-pentaazacyclooctadecan-2-yl)acetic acid] | 99.99 | 1.3
COC[C@@H]1NC(=O)[C@H](C)N(Cc2ccc(Cl)cc2Oc2ccc(-c3cnc(CN4CCCC4)n3C)cc2)C(=O)C[C@@H](Cc2ccccc2)C(=O)N(C)[C@@H](CCF)CNC(=O)C[C@H](Cc2ccc(Cl)cc2)N(C)C1=O [Compound 83, (2S,5S,8S,13S,16R)-16-benzyl-1-(4-chloro-2-(4-(1-methyl-2-(pyrrolidin-1-ylmethyl)-1H-imidazol-5-yl)phenoxy)benzyl)-8-(4-chlorobenzyl)-13-(2-fluoroethyl)-5-(methoxymethyl)-2,7,14-trimethyl-1,4,7,11,14-pentaazacyclooctadecane-3,6,10,15,18-pentaone] | 99.18 | 1.7
CCc1ccc(CN2C(=O)C[C@@H](Cc3ccccc3)C(=O)N(C)[C@H]3CCCC[C@@H]3NC(=O)C[C@H](Cc3ccc(Cl)cc3)N(C)C(=O)[C@H](COC)NC(=O)[C@@H]2C)c(Oc2ccc(-c3cnc([C@@H](C)N(C)C)n3C)cc2)c1 [Compound 85, (4S,7S,10S,14R,16aS,20aS)-14-benzyl-4-(4-chlorobenzyl)-11-(2-(4-(2-((R)-1-(dimethylamino)ethyl)-1-methyl-1H-imidazol-5-yl)phenoxy)-4-ethylbenzyl)-7-(methoxymethyl)-5,10,16-trimethylhexadecahydrobenzo[l][1,4,7,11,14]pentaazacyclooctadecine-2,6,9,12,15(3H)-pentaone] | 114.68 | 0.9
CNc1ncc(-c2ccc(Oc3cc(Cl)ccc3CN3C(=O)C[C@@H](Cc4ccccc4)C(=O)N(C)[C@@H](C)CNC(=O)C[C@H](Cc4ccc(Cl)cc4)N(C)C(=O)[C@H](COC)NC(=O)[C@@H]3C)cc2)cn1 [Compound 86, (2S,5S,8S,13S,16R)-16-benzyl-1-(4-chloro-2-(4-(2-(methylamino)pyrimidin-5-yl)phenoxy)benzyl)-8-(4-chlorobenzyl)-5-(methoxymethyl)-2,7,13,14-tetramethyl-1,4,7,11,14-pentaazacyclooctadecane-3,6,10,15,18-pentaone] | 56.62 | 20.5
COC[C@@H]1NC(=O)[C@H](CCO)N(Cc2ccc(Cl)cc2Oc2ccc(-c3cnc(CN(C)C)n3C)cc2)C(=O)C[C@@H](Cc2ccccc2)C(=O)N(C)[C@@H](C)CNC(=O)C[C@H](Cc2ccc(Cl)cc2)N(C)C1=O [Compound 87, (2S,5S,8S,13S,16R)-16-benzyl-1-(4-chloro-2-(4-(2-((dimethylamino)methyl)-1-methyl-1H-imidazol-5-yl)phenoxy)benzyl)-8-(4-chlorobenzyl)-2-(2-hydroxyethyl)-5-(methoxymethyl)-7,13,14-trimethyl-1,4,7,11,14-pentaazacyclooctadecane-3,6,10,15,18-pentaone] | 87.74 | 497
COC[C@@H]1NC(=O)[C@H](C)N(Cc2c(C)cccc2Oc2ccc(-c3cnc(CN(C)C)n3C)cc2)C(=O)C[C@@H](Cc2ccccc2)C(=O)N(C)[C@@H](C)CNC(=O)C[C@H](Cc2ccc(Cl)cc2)N(C)C1=O [Compound 88, (2S,5S,8S,13S,16R)-16-benzyl-8-(4-chlorobenzyl)-1-(2-(4-(2-((dimethylamino)methyl)-1-methyl-1H-imidazol-5-yl)phenoxy)-6-methylbenzyl)-5-(methoxymethyl)-2,7,13,14-tetramethyl-1,4,7,11,14-pentaazacyclooctadecane-3,6,10,15,18-pentaone] | 90.30 | 40.1
